Experiment: wn = mass fraction of the nth substance listed

CC(F)(F)F [1,1,1-trifluoroethane] + FCC(F)(F)F
Details | surface tension liquid-gas [mN/m]
256.91 K, w1 = 0.7511 | 10.69
257.03 K, w1 = 0.263 | 12.6
257.14 K, w1 = 0.5656 | 11.49
258.79 K, w1 = 0.7508 | 10.37
258.87 K, w1 = 0.2627 | 12.39
260.95 K, w1 = 0.565 | 10.86
261 K, w1 = 0.7503 | 10.13
262.96 K, w1 = 0.75 | 9.8
263.05 K, w1 = 0.5646 | 10.49
264.97 K, w1 = 0.2618 | 11.46
264.97 K, w1 = 0.7496 | 9.615
265.07 K, w1 = 0.5643 | 10.39
266.84 K, w1 = 0.564 | 10.02
267.09 K, w1 = 0.7491 | 9.245
268.62 K, w1 = 0.7488 | 9.17
268.83 K, w1 = 0.2611 | 10.94
268.92 K, w1 = 0.5636 | 9.81
270.52 K, w1 = 0.5633 | 9.46
270.6 K, w1 = 0.7484 | 8.84
271.15 K, w1 = 0.2607 | 10.62
273.07 K, w1 = 0.5628 | 9.14
273.2 K, w1 = 0.2604 | 10.39
273.23 K, w1 = 0.7478 | 8.49
274.99 K, w1 = 0.5625 | 8.825
275.4 K, w1 = 0.7473 | 8.26
275.43 K, w1 = 0.26 | 10.06
277.04 K, w1 = 0.2597 | 9.845
277.27 K, w1 = 0.562 | 8.575
278.99 K, w1 = 0.5617 | 8.35
279.15 K, w1 = 0.2593 | 9.5
279.35 K, w1 = 0.7463 | 7.755
281.43 K, w1 = 0.2589 | 9.23
281.48 K, w1 = 0.5612 | 8
281.54 K, w1 = 0.7458 | 7.46
282.89 K, w1 = 0.2586 | 9.01
283.35 K, w1 = 0.5608 | 7.755
283.39 K, w1 = 0.7453 | 7.25
285.2 K, w1 = 0.5604 | 7.465
285.24 K, w1 = 0.2581 | 8.695
285.45 K, w1 = 0.7448 | 6.985
287.35 K, w1 = 0.5599 | 7.295
287.39 K, w1 = 0.7443 | 6.725
287.4 K, w1 = 0.2577 | 8.415
289.05 K, w1 = 0.7438 | 6.5
289.29 K, w1 = 0.5595 | 7.115
289.31 K, w1 = 0.2573 | 8.23
291.17 K, w1 = 0.7432 | 6.23
291.2 K, w1 = 0.5591 | 6.82
291.37 K, w1 = 0.2569 | 8.03
293.21 K, w1 = 0.2565 | 7.725
293.45 K, w1 = 0.2564 | 7.57
293.49 K, w1 = 0.5585 | 6.47
293.71 K, w1 = 0.7425 | 5.82
295.16 K, w1 = 0.5582 | 6.13
295.56 K, w1 = 0.7419 | 5.58
295.58 K, w1 = 0.256 | 7.285
297.38 K, w1 = 0.2556 | 7.06
297.49 K, w1 = 0.7413 | 5.375
297.52 K, w1 = 0.5576 | 5.875
299.41 K, w1 = 0.7407 | 5.14
299.51 K, w1 = 0.5571 | 5.72
299.53 K, w1 = 0.2552 | 6.855
301.41 K, w1 = 0.7401 | 4.89
301.53 K, w1 = 0.2547 | 6.585
302.95 K, w1 = 0.5563 | 5.335
303.65 K, w1 = 0.7394 | 4.63
303.66 K, w1 = 0.2542 | 6.325
305.21 K, w1 = 0.5557 | 5.055
305.38 K, w1 = 0.7388 | 4.425
305.56 K, w1 = 0.2538 | 6.13
307.4 K, w1 = 0.5552 | 4.755
307.46 K, w1 = 0.2534 | 5.835
307.74 K, w1 = 0.738 | 4.17
309.3 K, w1 = 0.5547 | 4.56
309.6 K, w1 = 0.2529 | 5.585
309.65 K, w1 = 0.7373 | 3.97
311.25 K, w1 = 0.2525 | 5.385
311.41 K, w1 = 0.5541 | 4.29
311.44 K, w1 = 0.7367 | 3.755
313.47 K, w1 = 0.736 | 3.5
313.55 K, w1 = 0.252 | 5.095
313.61 K, w1 = 0.5536 | 4.03
315.3 K, w1 = 0.5531 | 3.825
315.54 K, w1 = 0.7352 | 3.3
315.59 K, w1 = 0.2515 | 4.85
317.36 K, w1 = 0.2511 | 4.66
317.41 K, w1 = 0.5525 | 3.605
317.57 K, w1 = 0.7345 | 3.11
319.33 K, w1 = 0.552 | 3.415
319.39 K, w1 = 0.7338 | 2.875
319.66 K, w1 = 0.2506 | 4.41
321.23 K, w1 = 0.7331 | 2.685
321.33 K, w1 = 0.5515 | 3.18
322.01 K, w1 = 0.25 | 4.12
323.26 K, w1 = 0.2497 | 4
323.33 K, w1 = 0.7323 | 2.44
323.42 K, w1 = 0.5509 | 2.925
325.17 K, w1 = 0.5505 | 2.75
325.28 K, w1 = 0.7315 | 2.25
325.69 K, w1 = 0.2492 | 3.67
327.33 K, w1 = 0.2488 | 3.545
327.36 K, w1 = 0.7306 | 2.065
327.38 K, w1 = 0.5498 | 2.53
329.42 K, w1 = 0.7298 | 1.81
329.44 K, w1 = 0.5493 | 2.32
